Test results from ChEMBL document CHEMBL2040791, “Synthesis of novel 6-(4-substituted piperazine-1-yl)-9-(β-D-ribofuranosyl)purine derivatives, which lead to senescence-induced cell death in liver cancer cells” (J Med Chem, 2012).
Activity calls are given as the source filed them. The calls are words filed in the database; no cut-off is given here.

Assays:
[1] = Cytotoxicity against human Mahlavu cells after 72 hrs by SRB assay; assay type: functional, cell-based
Huh-7 [2] = experiment: Cytotoxicity against human HuH7 cells after 72 hrs by SRB assay; assay type: functional, cell-based
[3] = Cytotoxicity against human FOCUS cells after 72 hrs by SRB assay; assay type: functional, cell-based
MCF7 = experiment: Cytotoxicity against human MCF7 cells after 72 hrs by SRB assay; assay type: functional, cell-based
HCT-116 = experiment: Cytotoxicity against human HCT116 cells after 72 hrs by SRB assay; assay type: functional, cell-based
HepG2 [4] = experiment: Cytotoxicity against human HepG2 cells after 72 hrs by SRB assay; assay type: functional, cell-based
Huh-7 [5] = experiment: Inhibition of protein kinase in human HuH7 cells assessed as increase in ATP level after 72 hrs by Kinase-Glo assay; assay type: cell-based
Huh-7 [6] = experiment: Antiproliferative activity in human HuH7 cells assessed as inhibition of BrdU incorporation at cytotoxic IC50 to IC100 concentration after 3 to 6 days; assay type: functional, cell-based
FOCUS [7] = experiment: Induction of necrosis in human FOCUS cells assessed as PARP cleavage into 50 kDa fragment at 5.2 uM after 72 hrs by Western blot analysis; assay type: functional, cell-based
FOCUS [8] = experiment: Induction of apoptosis in human FOCUS cells assessed as PARP cleavage into 89 kDa and 24 kDa fragments at 5.2 uM after 72 hrs by Western blot analysis; assay type: functional, cell-based
Huh-7 [9] = experiment: Growth inhibition of human HuH7 cells measured every 30 mins by real-time cell electronic sensing assay; assay type: functional, cell-based
Mahlavu [10] = experiment: Induction of necrosis in human Mahlavu cells assessed as PARP cleavage into 50 kDa fragment at 9.2 uM after 72 hrs by Western blot analysis; assay type: functional, cell-based
HepG2 [11] = experiment: Growth inhibition of human HepG2 cells at 5 to 30 uM by real-time cell electronic sensing assay; assay type: functional, cell-based; settings: TDE = time-dependent effect
Huh-7 [12] = experiment: Growth inhibition of human HuH7 cells at 5 to 30 uM by real-time cell electronic sensing assay; assay type: functional, cell-based; settings: TDE = time-dependent effect
FOCUS [13] = experiment: Growth inhibition of human FOCUS cells measured every 30 mins by real-time cell electronic sensing assay; assay type: functional, cell-based
Huh-7 [14] = experiment: Induction of p15INK4b protein expression in human HuH7 cells after 3 to 6 days by Western blot analysis; assay type: functional, cell-based
Mahlavu [15] = experiment: Growth inhibition of human Mahlavu cells at 5 to 30 uM by real-time cell electronic sensing assay; assay type: functional; settings: TDE = time-dependent effect
HepG2 [16] = experiment: Induction of necrosis in human HepG2 cells assessed as PARP cleavage into 50 kDa fragment into at 5.7 uM after 72 hrs by Western blot analysis; assay type: functional, cell-based
FOCUS [17] = experiment: Growth inhibition of human FOCUS cells at 5 to 30 uM by real-time cell electronic sensing assay; assay type: functional, cell-based; settings: TDE = time-dependent effect
Huh-7 [18] = experiment: Induction of senescence in human HuH7 cells assessed as increase in senescence associated beta-galactosidase activity at cytotoxic IC50 to IC100 concentration after 3 to 6 days by X-GAL based staining method; assay type: functional, cell-based
Mahlavu [19] = experiment: Induction of apoptosis in human Mahlavu cells assessed as PARP cleavage into 89 kDa and 24 kDa fragments at 9.2 uM after 72 hrs by Western blot analysis; assay type: functional, cell-based
Mahlavu [20] = experiment: Growth inhibition of human Mahlavu cells measured every 30 mins by real-time cell electronic sensing assay; assay type: functional
Huh-7 [21] = experiment: Induction of necrosis in human HuH7 cells assessed as PARP cleavage into 50 kDa fragment at 7.8 uM after 72 hrs by Western blot analysis; assay type: functional, cell-based
HepG2 [22] = experiment: Induction of apoptosis in human HepG2 cells assessed as PARP cleavage into 89 kDa and 24 kDa fragments at 5.7 uM after 72 hrs by Western blot analysis; assay type: functional, cell-based
Huh-7 [23] = experiment: Induction of p15INK4b protein expression in human HuH7 cells assessed as inhibition of cyclinD1/[…]-mediated Rb phosphorylation at cytotoxic IC50 to IC100 concentration after 6 days by Western blot analysis; assay type: functional, cell-based
Huh-7 [24] = experiment: Induction of apoptosis in human HuH7 cells assessed as PARP cleavage into 89 kDa and 24 kDa fragments at 7.8 uM after 72 hrs by Western blot analysis; assay type: functional, cell-based
HepG2 [25] = experiment: Growth inhibition of human HepG2 cells measured every 30 mins by real-time cell electronic sensing assay; assay type: functional, cell-based
Huh-7 [26] = experiment: Induction of p15INK4b protein expression in human HuH7 cells at cytotoxic IC50 to IC100 concentration by Western blot analysis; assay type: functional, cell-based; settings: TDE = time-dependent effect
Huh-7 [27] = experiment: Induction of senescence in human HuH7 cells assessed as increase in senescence associated beta-galactosidase activity at 25 ng/mL after 3 to 6 days by X-GAL based staining method; assay type: functional, cell-based
Huh-7 [28] = experiment: Antiproliferative activity in human HuH7 cells assessed as inhibition of BrdU incorporation at 25 ng/mL after 3 to 6 days; assay type: functional, cell-based
Huh-7 [29] = experiment: Inhibition of protein kinase in human HuH7 cells assessed as increase in ATP level at 5 uM after 72 hrs by Kinase-Glo assay; assay type: cell-based
[30] = Homo sapiens, Huh-7, 72 h, read-out: IC50
[31] = huh-7, TDE = time-dependent effect
[32] = Homo sapiens, MCF7, 72 h, read-out: IC50
[33] = mcf7, TDE = time-dependent effect
[34] = Homo sapiens, HCT-116, 72 h, read-out: IC50
[35] = hct-116, TDE = time-dependent effect
[36] = Homo sapiens, HepG2, 72 h, read-out: IC50
[37] = hepg2, TDE = time-dependent effect

## OC[C@H]1O[C@@H](n2cnc3c(N4CCN(C(c5ccccc5)c5ccccc5)CC4)ncnc32)[C@H](O)[C@@H]1O
[1]
  IC50: 92.7 µM
Huh-7 [2]; [30]
  IC50: 44.4 µM
Huh-7 [2]; [31]
  IC50: tde
[3]
  IC50: > 100 µM
MCF7; [32]
  IC50: 40.1 µM
MCF7; [33]
  IC50: tde
HCT-116; [34]
  IC50: 48.5 µM
HCT-116; [35]
  IC50: tde
HepG2 [4]; [36]
  IC50: 63.5 µM
HepG2 [4]; [37]
  IC50: tde

## OC[C@H]1O[C@@H](n2cnc3c(N4CCN(c5ccccc5)CC4)ncnc32)[C@H](O)[C@@H]1O
[1]
  IC50: > 100 µM
Huh-7 [2]; [30]
  IC50: > 100 µM
Huh-7 [2]; [31]
  IC50: tde
[3]
  IC50: > 100 µM
MCF7; [32]
  IC50: > 100 µM
MCF7; [33]
  IC50: tde
HCT-116; [34]
  IC50: > 100 µM
HCT-116; [35]
  IC50: tde
HepG2 [4]; [36]
  IC50: > 100 µM
HepG2 [4]; [37]
  IC50: tde

## O=c1[nH]cc(F)c(=O)[nH]1 [FLUOROURACIL]
[1]
  IC50: 10 µM
Huh-7 [2]; [30]
  IC50: 30.7 µM
[3]
  IC50: 7.6 µM
MCF7; [32]
  IC50: 3.5 µM
HCT-116; [34]
  IC50: 6 µM
HepG2 [4]; [36]
  IC50: 5 µM

## OC[C@H]1O[C@@H](n2cnc3c(N4CCN(c5ccc(C(F)(F)F)cc5)CC4)ncnc32)[C@H](O)[C@@H]1O
Huh-7 [5]
  inhibition: Dose-dependent effect
Huh-7 [6]
  Activity: Active
FOCUS [7]
  Activity: inactive
FOCUS [8]
  Activity: inactive
Huh-7 [9]
  growth inhibition (GI): Dose-dependent effect
Mahlavu [10]
  Activity: inactive
[1]
  IC50: 9.2 µM
HepG2 [11]
  growth inhibition (GI): tde
Huh-7 [12]
  growth inhibition (GI): tde
Huh-7 [2]; [30]
  IC50: 7.8 µM
Huh-7 [2]; [31]
  IC50: tde
FOCUS [13]
  growth inhibition (GI): Dose-dependent effect
[3]
  IC50: 5.2 µM
Huh-7 [14]
  Activity: Dose-dependent effect
Mahlavu [15]
  growth inhibition (GI): tde
MCF7; [32]
  IC50: 7.5 µM
MCF7; [33]
  IC50: tde
HCT-116; [34]
  IC50: 6.7 µM
HCT-116; [35]
  IC50: tde
HepG2 [16]
  Activity: inactive
FOCUS [17]
  growth inhibition (GI): tde
Huh-7 [18]
  Activity: Active
Mahlavu [19]
  Activity: inactive
Mahlavu [20]
  growth inhibition (GI): Dose-dependent effect
Huh-7 [21]
  Activity: inactive
HepG2 [22]
  Activity: inactive
Huh-7 [23]
  Activity: Active
HepG2 [4]; [36]
  IC50: 5.7 µM
HepG2 [4]; [37]
  IC50: tde
Huh-7 [24]
  Activity: inactive
HepG2 [25]
  growth inhibition (GI): Dose-dependent effect
Huh-7 [26]
  Activity: tde

## CC[C@@]1(O)C(=O)OCc2c1cc1n(c2=O)Cc2cc3ccccc3nc2-1 [CAMPTOTHECIN]
[1]
  IC50: < 0.1 µM
Huh-7 [2]; [30]
  IC50: < 0.1 µM
[3]
  IC50: < 0.1 µM
MCF7; [32]
  IC50: < 0.1 µM
HCT-116; [34]
  IC50: < 0.1 µM
HepG2 [4]; [36]
  IC50: < 0.1 µM

## COc1cccc2c1C(=O)c1c(O)c3c(c(O)c1C2=O)C[C@@](O)(C(=O)CO)C[C@@H]3O[C@H]1C[C@H](N)[C@H](O)[C@H](C)O1
Huh-7 [27]
  Activity: Active
Huh-7 [28]
  Activity: Active

## OC[C@H]1O[C@@H](n2cnc3c(N4CCN(c5ccc(Cl)c(Cl)c5)CC4)ncnc32)[C@H](O)[C@@H]1O
[1]
  IC50: 7 µM
Huh-7 [2]; [30]
  IC50: 7.1 µM
Huh-7 [2]; [31]
  IC50: tde
[3]
  IC50: 5.5 µM
MCF7; [32]
  IC50: 9.7 µM
MCF7; [33]
  IC50: tde
HCT-116; [34]
  IC50: 8.4 µM
HCT-116; [35]
  IC50: tde
HepG2 [4]; [36]
  IC50: 6.1 µM
HepG2 [4]; [37]
  IC50: tde

## OC[C@H]1O[C@@H](n2cnc3c(N4CCN(c5ccc(F)cc5)CC4)ncnc32)[C@H](O)[C@@H]1O
[1]
  IC50: > 100 µM
Huh-7 [2]; [30]
  IC50: 49.7 µM
Huh-7 [2]; [31]
  IC50: tde
[3]
  IC50: > 100 µM
MCF7; [32]
  IC50: > 100 µM
MCF7; [33]
  IC50: tde
HCT-116; [34]
  IC50: > 100 µM
HCT-116; [35]
  IC50: tde
HepG2 [4]; [36]
  IC50: > 100 µM
HepG2 [4]; [37]
  IC50: tde

## CSC[C@H]1O[C@@H](n2cnc3c(N)ncnc32)[C@H](O)[C@@H]1O
Huh-7 [29]
  inhibition: Active
